One series has as its system human lymphocytes. Put plainly: In vitro micronucleus test. Type of series: cell-based.

Experimental for Caco-2 cell monolayers: Various controls were assessed in parallel, including atenolol (low permeability) and diclofenac (high permeability).
(§1) The instrument operated in positive ionisation mode (ESI + ) over a m/z range of 80–1000 (n = 1 measure per sample). Data were extracted from chromatograms using calculated monoisotopic accurate masses for protonated molecular ions within 5 ppm windows.
Experimental for human hepatocytes: Pooled human hepatocytes from 10-donor males (BioIVT, West Sussex, UK; MX008001) or 10-donor females (BioIVT, West Sussex, UK; FX008001) were incubated with test compounds (or vehicle) and the compound concentration was measured over time. Samples were incubated at 37 °C and concentrations were assessed after 0, 20-, 40-, 60- and 240-min. Verapamil was included as a control.
as §1

Take `Cc1c(CN(C)C(=O)/C=C/c2cnc3c(c2)N[C@H](C)[C@H](OP(=O)([O-])[O-])C(=O)N3)oc2ccccc12.[Na+].[Na+]` [Debio 1453 P]: the “in vitro micronucleus test result” value in the series on human lymphocytes is recorded as “negative”. In the series with Caco-2 cell monolayers, the “Apparent permeability (Papp)” value is listed as “negligible” and the “permeability through transwells A → B” value worked out at 3.18e-05 cm/s. Moreover, the “Intrinsic clearance (Clint)” value in the series with human hepatocytes was below 0.44 µL/min/million cells.

These data come from article PMC12446476 (Nature Communications, 2025).
